Where two headings read alike, the source gives them in different places.

23 compounds from patent publication US20260159527A1, “MACROCYCLIC BCL6 DEGRADERS” (DANA-FARBER CANCER INSTITUTE, INC., priority 2022, published 2026) can be followed below.

For data set [1] the following is noted: 14-membered ring.
For data set [2] the following is noted: from C[C@@H]1CN(c2ncc(Cl)c(Nc3cc(OCC(=O)O)c4c(c3)[nH]c(=O)n4C)n2)C[C@H](N)C1(F)F; amide bond; 14-membered ring; HATU/DIEA; DMF; 141.0 mM; 20.0 °C; 2.0 h.
The target of data set [3] is T1, BCL6 (Homo sapiens, UniProt P41182).
T1 construct: Endogenous BCL6 was tagged with the 11-amino acid SmBiT through CRISPR/Cas9 gene editing; endogenous in cells; host or cells: Su-DHL-4 cells, CRISPR/Cas9 knock-in single cell clone
The experiment in a line: HiBiT cellular degradation assay (Promega) in Su-DHL-4 cells. To be noted: concentration to reach 50% degradation; endogenous BCL6 tagged with SmBiT in Su-DHL-4 cells; 24 hr of compound treatment; relative to DMSO control. The data set is classed as cell-based. Here is the method: DC50 (concentration to reach 50% degradation) values were determined from a cellular degradation assay (HiBiT, Promega™) in Su-DHL-4 cells (Table 1). Endogenous BCL6 was tagged with the 11-amino acid SmBiT through CRISPR/Cas9 gene editing and single cell clone selection. After 24 hr of compound treatment, cells were lysed and incubated with LgBiT protein to reconstitute intact nanoluciferase. Substrate was then added and relative luciferase units were measured. Degradation levels for each treatment were taken as a percentage compared to the control, 100% DMSO (Prism).

The conditions of data set [4]: snar bond, 14-membered ring, DIEA, 80.0 °C, 12.0 h.

Compound `CC1CN2CC(NC(=O)COc3cc(cc4[nH]c(=O)n(C)c34)Nc3nc2ncc3F)C1(F)F` (stereo not drawn) showed a ring closure, isolated yield in data set [1] (from CC1CN(c2ncc(F)c(Nc3cc(OCC(=O)O)c4c(c3)[nH]c(=O)n4C)n2)CC(N)C1(F)F, amide bond, HATU/DIEA, DMF, 148.0 mM, 15.0 °C, 2.0 h) of 74%.

`C[C@@H]1CN2C[C@H](NC(=O)COc3cc(cc4[nH]c(=O)n(C)c34)Nc3nc2ncc3Cl)C1(F)F` returned a ring closure, crude yield in data set [2] of 59%.

In the case of `C[C@@H]1C[C@H]2CN(C1)c1ncc(Cl)c(n1)Nc1cc(c3c(c1)[nH]c(=O)n3C)OCCN2`, the ring closure, isolated yield in data set [1] (from C[C@@H]1C[C@H](N)CN(c2ncc(Cl)c(Nc3cc(OCCCl)c4c(c3)[nH]c(=O)n4C)n2)C1, amine bond, K2CO3/NaI, DMF, 11.5 mM, 100.0 °C, 36.0 h) stood at 42%.

Regarding `C[C@@H]1C[C@H]2CN(C1)c1ncc(Cl)c(n1)Nc1cc(c3c(c1)[nH]c(=O)n3C)OCCO2`, the ring closure, isolated yield in data set [1] (from C[C@H]1CNC[C@@H](OCCOc2cc(Nc3nc(Cl)ncc3Cl)cc3[nH]c(=O)n(C)c23)C1, snar bond, DIEA, DMSO, 38.3 mM, 80.0 °C, 12.0 h) turned out to be 12%.

On to `C[C@H]1CN2C[C@@H](OCCOc3cc(cc4[nH]c(=O)n(C)c34)Nc3nc2ncc3Cl)C1(F)F`, for which the ring closure, isolated yield in data set [1] (from C[C@H]1CNC[C@@H](OCCOc2cc(Nc3nc(Cl)ncc3Cl)cc3[nH]c(=O)n(C)c23)C1(F)F, snar bond, DIEA, DMSO, 49.7 mM, 80.0 °C, 24.0 h) was 30%.

`C[C@H]1C[C@@H]2CN(C1)c1ncc(Cl)c(n1)Nc1cc(c3c(c1)[nH]c(=O)n3C)OCCO2` returned a ring closure, isolated yield in data set [1] (from C[C@@H]1CNC[C@H](OCCOc2cc(Nc3nc(Cl)ncc3Cl)cc3[nH]c(=O)n(C)c23)C1, snar bond, DIEA, DMSO, 18.4 mM, 80.0 °C, 12.0 h) of 13%.

Turning to `CNC(=O)COc1cc2cc3cc(c2n(C)c1=O)OCCC[C@H]1CN(C[C@@H](C)C1(F)F)c1ncc(Cl)c(n1)N3` [Compound 4, 2-(((1^3S, 1^5R)-2^5-chloro-1^4,1^4-difluoro-13,41-dimethyl-4^2-oxo-4^1,4^2-dihydro-5-oxa-3-aza-4(6,8)-quinolina-2(2,4)-pyrimidina-1 (1,3)-piperidinacyclooctaphane-4^3-yl)oxy)-N-methylacetamide], in data set [3], the DC50 (as a rule, the concentration at which degradation of the target reaches its halfway point) was 0.68 nM. This compound also returned a ring closure, yield after HPLC in data set [4] (from CNC(=O)COc1cc2cc(Nc3nc(Cl)ncc3Cl)cc(OCCC[C@H]3CNC[C@@H](C)C3(F)F)c2n(C)c1=O, DMF, 140.0 mM) of 12%.

`CNC(=O)COc1cc2cc3cc(c2n(C)c1=O)OCCO[C@@H]1C[C@H](C)CN(C1)c1ncc(Cl)c(n1)N3` [Compound 6, 2-(((1^3R, 1^5S)-2^5-chloro-1^5,4^1-dimethyl-4^2-oxo-4^1, 4^2-dihydro-5,8-dioxa-3-aza-4(6.8)-quinolina-2(2,4)-pyrimidina-1 (1,3)-piperidinacyclooctaphane-4^3-yl)oxy)-N-methylacetamide]: half-maximal degradation in data set [3] (DC50) was put at 0.61 nM. The same compound came in with a ring closure, yield after HPLC in data set [4] (from CNC(=O)COc1cc2cc(Nc3nc(Cl)ncc3Cl)cc(OCCO[C@H]3CNC[C@@H](C)C3)c2n(C)c1=O, DMSO, 36.0 mM) of 12%.

The compound `C[C@@H]1CN2C[C@H](CCCOc3cc(cc4[nH]c(=O)n(C)c34)Nc3nc2ncc3Cl)C1(F)F` [Compound 26, (1^3S,1^3R)-2^5-chloro-1^4,1^4-difluoro-1^5,4^3-dimethyl-4^2,4^3-dihydro-4 H-5-oxa-3-aza-4(6,4)-benzo[d]imidazola-2(2,4)-pyrimidina-1 (1,3)-piperidinacyclooctaphan-4^2-one] displayed a DC50 in data set [3] of 72 nM. Also, the ring closure, isolated yield in data set [1] (from C[C@@H]1CNC[C@H](CCCOc2cc(Nc3nc(Cl)ncc3Cl)cc3[nH]c(=O)n(C)c23)C1(F)F, snar bond, DIEA, DMSO, 27.1 mM, 80.0 °C, 12.0 h) was determined as 64%.

The compound `C[C@H]1CN2C[C@@H](CCCOc3cc(cc4[nH]c(=O)n(C)c34)Nc3nc2ncc3Cl)C1(F)F` [Compound 27, (1^3R, 1^5S)-2^5-chloro-1^4,1^4-difluoro-1^5,4^3-dimethyl-4^2,4^3-dihydro-4^1H-5-oxa-3-aza-4(6,4)-benzo[d]imidazola-2(2,4)-pyrimidina-1 (1,3)-piperidinacyclooctaphan-4^2-one] displayed a DC50 in data set [3] greater than 400 nM. In data set [1] (from C[C@H]1CNC[C@@H](CCCOc2cc(Nc3nc(Cl)ncc3Cl)cc3[nH]c(=O)n(C)c23)C1(F)F, snar bond, DIEA, DMSO, 40.6 mM, 80.0 °C, 12.0 h), this compound showed a ring closure, isolated yield of 63%.

Consider `C[C@H]1CN2C[C@@H](OCCOc3cc(cc4c3n(C)c(=O)n4CCC(C)(C)O)Nc3nc2ncc3Cl)C1(F)F` [Compound 34, (1^3R, 1^5S)-2^5-Chloro-1^4,1^4-difluoro-4^1-(3-hydroxy-3-methylbutyl)-1^5,4^3-dimethyl-4^2,4^3-dihydro-4 H-5,8-dioxa-3-aza-4(6,4)-benzo[d]imidazola-2(2,4)-pyrimidina-1 (1,3)-piperidinacyclooctaphan-4^2-one], for which, in data set [3], the DC50 is greater than 400 nM.

Compound `C[C@H]1CN2C[C@@H](NCCOc3cc(cc4c3n(C)c(=O)n4CCC(C)(C)O)Nc3nc2ncc3Cl)C1(F)F` [Compound 35, (1^3R, 1^5S)-1^4,1^4,2^5-Trifluoro-4^1-(3-hydroxy-3-methylbutyl)-1^5,4^3-dimethyl-4^2,4^3-dihydro-4^1H-5-oxa-3,8-diaza-4(6,4)-benzo[d]imidazola-2(2,4)-pyrimidina-1 (1,3)-piperidinacyclooctaphan-4^2-one] came in with a DC50 in data set [3] greater than 400 nM.

`C[C@H]1CN2C[C@@H](NCCOc3cc(cc4[nH]c(=O)n(C)c34)Nc3nc2ncc3F)C1(F)F` [Compound 37] had a DC50 in data set [3] greater than 400 nM.

The compound `C[C@@H]1CN2C[C@H](NCCOc3cc(cc4[nH]c(=O)n(C)c34)Nc3nc2ncc3F)C1(F)F` [Compound 38] came in with a DC50 in data set [3] of 14.2 nM.

In turn, `C[C@@H]1CN2C[C@H](NCCOc3cc(cc4c3n(C)c(=O)n4CCC(C)(C)O)Nc3ccnc2n3)C1(F)F` [Compound 39] had a DC50 in data set [3] of 96.7 nM.

Compound `C[C@@H]1CN2C[C@H](NCCOc3cc(cc4c3n(C)c(=O)n4CCC(C)(O)CO)Nc3nc2ncc3Cl)C1(F)F` (stereo partly drawn) [Compound 40] displayed a DC50 in data set [3] of 3.7 nM.

In turn, `C[C@@H]1CN2C[C@H](NCCOc3cc(cc4c3n(C)c(=O)n4C[C@@H](O)C(C)(C)O)Nc3nc2ncc3Cl)C1(F)F` [Compound 41] gave a DC50 in data set [3] of 1 nM.

Turning to `C[C@@H]1CN2C[C@H](NCCOc3cc(cc4c3n(C)c(=O)n4C[C@H](O)C(C)(C)O)Nc3nc2ncc3Cl)C1(F)F` [Compound 42], in data set [3], half-maximal degradation (DC50) was put at 8.5 nM.

On to `C[C@@H]1CN2C[C@H](NCCOc3cc(cc4c3n(C)c(=O)n4CC[S@](C)(=N)=O)Nc3nc2ncc3Cl)C1(F)F` [Compound 43], for which half-maximal degradation in data set [3] (DC50) was put at 11.3 nM.

On to `C[C@@H]1CN2C[C@H](NCCOc3cc(cc4c3n(C)c(=O)n4CC[S@@](C)(=N)=O)Nc3nc2ncc3Cl)C1(F)F` [Compound 44], for which the DC50 in data set [3] stood at 18.9 nM.

On to `C[C@@H]1CN2C[C@H](NCCOc3cc(cc4c3n(C)c(=O)n4CCC3(O)COC3)Nc3nc2ncc3Cl)C1(F)F` [Compound 45], for which half-maximal degradation in data set [3] (DC50) was put at 8.7 nM.

In data set [3], `CNC(=O)COc1cc2cc3ccc2n(c1=O)CCCCO[C@H]1C[C@@H](C)CN(C1)c1ncc(Cl)c(n1)N3` [Compound A, reference compound] registered a DC50 greater than 400 nM.

In turn, `CNC(=O)COc1cc2cc3ccc2n(c1=O)CCCCO[C@@H]1C[C@H](C)CN(C1)c1ncc(Cl)c(n1)N3` [Compound B, reference compound] came in with a DC50 in data set [3] greater than 400 nM.
